Test results taken from PubChem BioAssay AID2060337 (Molecular Pharmacology Branch, DTP, NCI, 2025).

Test system: 832693-133-R-J1-PDC multi-cell spheroids, viability
Test: Anticancer human tumor 832693-133-R-J1-PDC patient-derived head and neck squamous carcinoma cell line growth inhibition [IpAb]
Details: for viability, T/C: stronger effect = lower value; for IC50: curve of first compound
Description: Combinatorial screen of targeted agents with ipatasertib and abemaciclib in multi-cell type tumor spheroids
A high-throughput screen of multi-cell type tumor spheroids was designed to identify active combinations of targeted small molecules and ipatasertib or abemaciclib. Complex spheroids include a stromal component modeled by human endothelial cells (HUVEC) and fibroblasts modeled by human mesenchymal stem cells (MSCs). The concentration ranges selected for each drug and investigational agent were based upon clinically achievable concentrations if the clinical Cmax of the agent was known.
Compounds. The drugs and investigational agents: ipatasertib (NSC767898), abemaciclib(NSC768073), selumetinib (NSC741078), trametinib (758246), adavosertib (NSC754352), everolimus (NSC733504), sapanisertib (NSC764658), vemurafenib (NSC761431), venetoclax (NSC766270), copanlisib (NSC809693), apelisib (NSC765974), palbociblib (NSC758247), vemurafenib (NSC761431), dabrafenib (NSC764134), ravoxertinib (NSC781343), BMS-387032 (NSC767048), sotorasib (NSC818433), talazoparib (NSC767125) and afursertib (NSC778305), were obtained from the National Cancer Institute (NCI) Developmental Therapeutics Program Chemical Repository. The FDA-approved anticancer drug set is available from the NCI Developmental Therapeutics Program. […] The stock solutions were prepared in dimethyl sulfoxide (DMSO, Sigma-Aldrich, St. Louis, MO, cat. D2650) at 800-fold the tested concentration and stored at -70 degrees C prior to their use. All drugs and investigational agents were tested over a range starting from a high concentration at or near the clinical Cmax and decreasing in half-log increments. If the clinical Cmax for an agent had not been determined, the highest concentration tested was 10 microM.
NCI60 Cell Culture. NCI60 cell lines were obtained from the NCI Developmental Therapeutics Program Tumor Repository. For each lot of cells, the Repository performed Applied Biosystems AmpFLSTR Identifiler testing with PCR amplification to confirm consistency with the published Identifier STR profile for each cell line. Cells were kept in continuous culture for no more than 20 passages. The optimal seeding densities for each of the cell lines at each time point assessed were determined prior to performing the concentration response studies. Briefly, the NCI60 human tumor lines were grown as monolayers in RPMI 1640 medium supplemented with 10% FBS and 2 mmol/L L-glutamine.
An additional 9 lines were from the NCI60 cell line panel including MDA-MB-231 breast carcinoma, MDA-MB-468 breast carcinoma, MCF7 breast carcinoma, Hs578T breast carcinoma, MALME-3M melanoma, SK-MEL-2 melanoma, SK-OV-3 ovarian carcinoma, DU-145 prostate carcinoma, PC-3 prostate carcinoma, all cell lines along with major genetic alterations are listed on Table 2. Pooled donor human umbilical vein endothelial cells (HUVEC, Lonza, cat. CC-2519) and human mesenchymal stem cells (hMSC, Lonza, cat. PT-2501) were purchased from Lonza (Walkersville, MD).
PDMR cell lines were grown in complete medium (DC medium): Dulbecco's modified Eagle's medium (DMEM)/F12 supplemented with 5% fetal bovine serum (FBS), 2 mM L-glutamine, 100 U/mL penicillin and 100 µg/ml streptomycin, 0.4 µg/ml hydrocortisone, 10 ng/ml epidermal growth factor (EGF) recombinant human protein, 24 µg/mL adenine, and 0.1 mg/mL primocin. During culture from frozen stock vials, PDMR cells were cultured in the same medium containing 10 µM Y-27632 (see Table 3). The PDCs were cultured in complete DMEM/F12 media without 10 microM Y-27632 dihydrochloride for at least two passages prior to the screen. The pooled donor HUVEC and hMSC were cultured in endothelial cell growth medium 2 (PromoCell, Heidelberg, Germany, cat. C-22011) and mesenchymal stem cell growth medium 2 (PromoCell, cat. C-28009), respectively. For all experiments, HUVEC and hMSC were used at passages </=5.
[…]
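Note: spheroids exposed to the drugs for one week before the viability readout.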
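Throughout, for viability, T/C: 100% = DMSO vehicle control wells.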

SMILES: CCN1CCN(Cc2ccc(Nc3ncc(F)c(-c4cc(F)c5nc(C)n(C(C)C)c5c4)n3)nc2)CC1
- viability, T/C (compound 0.01 µM): 97.5% [middle of 13 runs]
- viability, T/C (compound 0.0316 µM): 82.1% [middle of 13 runs]
- viability, T/C (compound 0.1 µM): 63.8% [middle of 13 runs]
- viability, T/C (compound 0.316 µM): 57.4% [middle of 13 runs]
- viability, T/C (compound 1 µM): 59.1% [middle of 13 runs]

SMILES: Cn1nccc1Nc1nccc(-c2ccn(C(CO)c3ccc(Cl)c(F)c3)c(=O)c2)n1 (stereo not given) + CCN1CCN(Cc2ccc(Nc3ncc(F)c(-c4cc(F)c5nc(C)n(C(C)C)c5c4)n3)nc2)CC1
- IC50 (second compound 0.01 µM): 1140 nM
- IC50 (second compound 0.0316 µM): 852 nM
- IC50 (second compound 0.1 µM): 444 nM
- IC50 (second compound 0.316 µM): 617 nM
- IC50 (second compound 1 µM): 5370 nM
- viability, T/C (second compound 0.01 µM, first compound 0.0316 µM): 87.8%
- viability, T/C (second compound 0.01 µM, first compound 0.1 µM): 83.6%
- viability, T/C (second compound 0.01 µM, first compound 0.316 µM): 67.6%
- viability, T/C (second compound 0.01 µM, first compound 1 µM): 55.9%
- viability, T/C (second compound 0.01 µM, first compound 3.16 µM): 31.9%
- viability, T/C (second compound 0.01 µM, first compound 10 µM): 30.3%
- viability, T/C (second compound 0.0316 µM, first compound 0.0316 µM): 78%
- viability, T/C (second compound 0.0316 µM, first compound 0.1 µM): 68.1%
- viability, T/C (second compound 0.0316 µM, first compound 0.316 µM): 61.2%
- viability, T/C (second compound 0.0316 µM, first compound 1 µM): 52.7%
- viability, T/C (second compound 0.0316 µM, first compound 3.16 µM): 31%
- viability, T/C (second compound 0.0316 µM, first compound 10 µM): 34.2%
- viability, T/C (second compound 0.1 µM, first compound 0.0316 µM): 70.7%
- viability, T/C (second compound 0.1 µM, first compound 0.1 µM): 59.5%
- viability, T/C (second compound 0.1 µM, first compound 0.316 µM): 53.7%
- viability, T/C (second compound 0.1 µM, first compound 1 µM): 47.2%
- viability, T/C (second compound 0.1 µM, first compound 3.16 µM): 27.1%
- viability, T/C (second compound 0.1 µM, first compound 10 µM): 32.3%
- viability, T/C (second compound 0.316 µM, first compound 0.0316 µM): 68.7%
- viability, T/C (second compound 0.316 µM, first compound 0.1 µM): 59.5%
- viability, T/C (second compound 0.316 µM, first compound 0.316 µM): 53.3%
- viability, T/C (second compound 0.316 µM, first compound 1 µM): 50.5%
- viability, T/C (second compound 0.316 µM, first compound 3.16 µM): 36.8%
- viability, T/C (second compound 0.316 µM, first compound 10 µM): 31.9%
- viability, T/C (second compound 1 µM, first compound 0.0316 µM): 74.9%
- viability, T/C (second compound 1 µM, first compound 0.1 µM): 82.7%
- viability, T/C (second compound 1 µM, first compound 0.316 µM): 63.6%
- viability, T/C (second compound 1 µM, first compound 1 µM): 62.7%
- viability, T/C (second compound 1 µM, first compound 3.16 µM): 57.8%
- viability, T/C (second compound 1 µM, first compound 10 µM): 43.2%

SMILES: Cn1cnc2c(F)c(Nc3ccc(Br)cc3Cl)c(C(=O)NOCCO)cc21 + CC(C)NCC(C(=O)N1CCN(c2ncnc3c2C(C)CC3O)CC1)c1ccc(Cl)cc1
- IC50 (second compound 0.1 µM): 95.2 nM
- IC50 (second compound 0.316 µM): < 9.49 nM
- IC50 (second compound 1 µM): < 9.49 nM
- IC50 (second compound 3.16 µM): < 9.49 nM
- IC50 (second compound 10 µM): 160 nM
- viability, T/C (second compound 0.1 µM, first compound 0.00949 µM): 77%
- viability, T/C (second compound 0.1 µM, first compound 0.03 µM): 66.9%
- viability, T/C (second compound 0.1 µM, first compound 0.0949 µM): 45.5%
- viability, T/C (second compound 0.1 µM, first compound 0.3 µM): 38.7%
- viability, T/C (second compound 0.1 µM, first compound 0.949 µM): 27.1%
- viability, T/C (second compound 0.1 µM, first compound 3 µM): 14.7%
- viability, T/C (second compound 0.316 µM, first compound 0.00949 µM): 49.5%
- viability, T/C (second compound 0.316 µM, first compound 0.03 µM): 39.9%
- viability, T/C (second compound 0.316 µM, first compound 0.0949 µM): 33.7%
- viability, T/C (second compound 0.316 µM, first compound 0.3 µM): 30.6%
- viability, T/C (second compound 0.316 µM, first compound 0.949 µM): 17.4%
- viability, T/C (second compound 0.316 µM, first compound 3 µM): 11.2%
- viability, T/C (second compound 1 µM, first compound 0.00949 µM): 44.3%
- viability, T/C (second compound 1 µM, first compound 0.03 µM): 32%
- viability, T/C (second compound 1 µM, first compound 0.0949 µM): 30.4%
- viability, T/C (second compound 1 µM, first compound 0.3 µM): 17.7%
- viability, T/C (second compound 1 µM, first compound 0.949 µM): 12.5%
- viability, T/C (second compound 1 µM, first compound 3 µM): 8.67%
- viability, T/C (second compound 3.16 µM, first compound 0.00949 µM): 42.9%
- viability, T/C (second compound 3.16 µM, first compound 0.03 µM): 35.3%
- viability, T/C (second compound 3.16 µM, first compound 0.0949 µM): 28.6%
- viability, T/C (second compound 3.16 µM, first compound 0.3 µM): 22.4%
- viability, T/C (second compound 3.16 µM, first compound 0.949 µM): 15.8%
- viability, T/C (second compound 3.16 µM, first compound 3 µM): 11.9%
- viability, T/C (second compound 10 µM, first compound 0.00949 µM): 64%
- viability, T/C (second compound 10 µM, first compound 0.03 µM): 68.1%
- viability, T/C (second compound 10 µM, first compound 0.0949 µM): 58.7%
- viability, T/C (second compound 10 µM, first compound 0.3 µM): 38.7%
- viability, T/C (second compound 10 µM, first compound 0.949 µM): 14.6%
- viability, T/C (second compound 10 µM, first compound 3 µM): 4.33%
